Article PMC12667995 (bioRxiv, 2025)

Assays:
ProT3 = target: T1, ProT3 (Arabidopsis thaliana, UniProt Q9SJP9); test: 3H-proline uptake and two-electrode voltage clamp, Xenopus laevis oocytes; type: cell-based; details: uptake: 0.5 uM 3H-L-proline, labelled compound, pH 5.0, 30 min; currents: 5 mM L-proline, pH 5.0, -60 mV
T1 sequence (Q9SJP9 1-436): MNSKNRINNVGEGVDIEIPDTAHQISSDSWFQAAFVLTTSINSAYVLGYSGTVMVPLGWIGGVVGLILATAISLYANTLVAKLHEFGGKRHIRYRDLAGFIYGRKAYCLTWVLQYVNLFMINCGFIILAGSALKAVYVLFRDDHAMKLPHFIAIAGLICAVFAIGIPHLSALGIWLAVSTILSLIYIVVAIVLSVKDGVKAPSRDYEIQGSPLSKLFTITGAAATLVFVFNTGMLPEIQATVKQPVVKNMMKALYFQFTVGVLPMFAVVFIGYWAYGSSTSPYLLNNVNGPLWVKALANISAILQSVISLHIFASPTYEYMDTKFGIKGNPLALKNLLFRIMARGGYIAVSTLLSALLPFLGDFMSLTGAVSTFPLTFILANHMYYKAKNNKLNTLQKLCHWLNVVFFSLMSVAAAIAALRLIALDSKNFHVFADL

ProT2 = target: T2, ProT2 (Arabidopsis thaliana, UniProt P92962); test: as above; type: cell-based; details: uptake: 0.5 uM 3H-L-proline, labelled compound, pH 5.0, 30 min; currents: 5 mM L-proline, pH 5.0, -60 mV
T2 sequence (P92962 1-439): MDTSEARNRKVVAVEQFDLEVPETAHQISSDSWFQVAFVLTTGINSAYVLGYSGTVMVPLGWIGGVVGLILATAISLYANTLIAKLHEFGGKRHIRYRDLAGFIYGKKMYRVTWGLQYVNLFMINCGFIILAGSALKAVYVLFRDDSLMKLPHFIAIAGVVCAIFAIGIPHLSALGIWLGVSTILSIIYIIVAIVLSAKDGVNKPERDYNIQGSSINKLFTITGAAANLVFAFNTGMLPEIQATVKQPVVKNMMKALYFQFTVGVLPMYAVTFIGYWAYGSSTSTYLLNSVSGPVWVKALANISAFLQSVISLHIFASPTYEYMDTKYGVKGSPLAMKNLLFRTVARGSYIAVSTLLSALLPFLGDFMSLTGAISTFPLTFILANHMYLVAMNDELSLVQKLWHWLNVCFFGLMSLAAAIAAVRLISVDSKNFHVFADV

Question: Which results are given for O=C(O)[C@@H]1CCCN1 [L-proline]?
Answer: 3H-proline uptake and two-electrode voltage clamp, Xenopus laevis oocytes (ProT3): Oocytes expressing ProT2 or ProT3 can import ^3H-proline into the cells from external buffer; 3H-proline uptake and two-electrode voltage clamp, Xenopus laevis oocytes (ProT2): Oocytes expressing ProT2 or ProT3 can import ^3H-proline into the cells from external buffer
